Source: patent US5863540A, “Adhesion molecule” (Duke University, priority 1993, dated 1999)

Legend:
[1] = test system: T cell receptor-mediated T cell activation; test: T cell receptor-mediated T cell activation (anti-CD3ε mab Leu 4) of PBMC, 3H-thymidine, CD44 peptides; assay type: cell-based, human
Procedure: Synthetic peptides were prepared by FMoc or TBoc chemistry, purified usin
HPLC, and resuspended in RPMI media prior to addition to 4 day in vitro
cultures. Following 4 days in culture, 3Hthymidine was added, and
following an incubation of 4 hours, the cultures were harvested using an
automated multiwell harvester using standard techiques.

[2] = test system: CD2-Mediated T Cell Activation; test: T Cell Activation Assay: proliferation of PBMC stimulated with CD2 mabs 35.1 and 9-1; assay type: cell-based, human; conditions: soluble, free protein instead of liposomes, data not shown
Procedure: CD44 Liposomes. Liposomes were prepared by the method of Mimms et al. ((1981) Biochemistry 20:833-840), using 1 μM purified CD44 or control glycophorin protein, 1 nM L-α-dioleoyl lecthin (Avanti Polar Lipids, Birmingham, Ala.), and 240 nM OG. Liposomes were analyzed for content of the appropriate protein using a novel labelling technique and flow cytometry. Liposomes were incubated with 5-(N-octadecanoyl) aminofluorescein (Molecular Probes, Eugene, Oreg.) in PBS×10 min at room temperature. Fluoresceinated liposomes were then reacted with […] magnetic beads (Dynabeads M-450 Goat anti-Mouse IgG, Dynal Inc., Great Neck, N.Y.) coated with CD44 (A3D8) or anti-glycophorin (E3,E4,E5) mAbs. After 45 minutes (4° C.), with continuous end-over-end rotation, beads were washed ×3 in PBS using a magnet to immobilize the beads during PBS changes. Fluoresceinated liposome-bead conjugates were then analyzed by flow cytometry.
T Cell Activation Assay. PBMC from healthy donors were stimulated with optimal mitogenic concentration of CD2 mabs 35.1 and 9-1 as described (Denning et al.). Where indicated, CD44 or control glycophorin liposomes (final protein range used was 28-140 nM) were added to these cultures 20 min prior to addition of CD2 mabs. […]

Substance	effect on T cell activation (in words) ([1]; 1 mg/ml peptide, anti-CD3 triggered PBMC cultures)	% Inhibition ([1]; peptide 1 mg/ml, Leu 4 1:1000, 4 day culture) [%]	Δ CPM 3H-Thymidine/106 Cells in Culture ([1]; peptide 1 mg/ml, Leu 4 1:1000, 4 day culture, control 199,816)	effect on CD2 stimulated PBMC culture [2]
(C)NRNDVTGGRRDPNHSEGS (CNRNDVTGGRRDPNHSEGS; N-terminal Cys) [CD44-19A]	inhibition of T cell activation	75	50,318 Δ CPM 3H-Thymidine/106 Cells	
soluble, free CD44 protein: CD44 protein affinity-purified on A3D8-Sepharose from HuT 78 T cell lysate, single band at 80-85 kD				Identical results
